According to patent publication US9795692B2, “Ocular detection of amyloid proteins” (SYSTEM OF SYSTEMS ANALYTICS, INC., priority 2011, dated 2017):

Tests used:
Type in all cases: binding
[1] = target: T1, non-Congophilic amyloid protein aggregates in human brain tissue (Homo sapiens, UniProt P05067); assay: Staining of human hippocampal region and cerebral cortex compared with Congo Red
T1 construct: from tissue; host or cells: human post-mortem brain tissue (neocortex, hippocampus, cerebral cortex)

[2] = test system: amyloid aggregates in human eyes (optic nerve, ciliary retina, retina, drusen); assay: Staining of sectioned human donor eyes
From the text: Human eyes from donors with and without Alzheimer's Disease were obtained from the Georgia Eye Bank.

[3] = test system: amyloid protein aggregates in brain tissue of transgenic mice with Alzheimer's Disease (Tg AD); assay: Staining of murine brain tissue with FITC-labeled probe; conditions: age-matched non-Tg murine brain; dentate gyrus or midbrain
Description: Probes for detecting amyloid protein aggregates in brain tissue of transgenic mice with Alzheimer's Disease (Tg AD) were prepared in accordance with the methods described herein.

[4] = patient (3), 11-1755/6, person, Alzheimer's Disease and dementia
[5] = patient (4), 11-1767-8, person, Alzheimer's Disease

T1 sequence (P05067 672-713 limits assumed): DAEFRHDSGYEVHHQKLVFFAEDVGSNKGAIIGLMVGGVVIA

Compound	structures stained in the cerebral cortex ([1]; cerebral cortex of patients with Alzheimer's Disease)	staining of morphological structures within the brain parenchyma ([1]; human brain parenchyma)	structures stained in the hippocampal region ([1]; human brain tissue, hippocampal region)	binding to amyloid aggregates in the optic nerve, intensity ([2]; human eye sections, optic nerve, PEP-11 compared with BC750)	staining of the retina, intensity and homogeneity ([2]; human eye sections, retina)	retinal staining: distinguishing Alzheimer's Disease from non-Alzheimer's Disease tissue ([2]; human eye sections, retina, AD vs non-AD eyes)	binding in optic nerve and ciliary retina ([2]; human eye sections, optic nerve immediately posterior to lamina cribrosa, ciliary retina)	manner of optic nerve staining ([2]; optic nerve of Alzheimer's Disease patients)	ciliary retina background staining [2, 4]	optic nerve staining [2, 4]	ciliary retina background staining [2, 5]	optic nerve staining [2, 5]	staining of drusen ([2]; patient eyes, generally)	staining of non-Tg control brain tissue [3]
Nc1c(/N=N/c2ccc(-c3ccc(/N=N/c4cc(S(=O)(=O)O)c5ccccc5c4N)cc3)cc2)cc(S(=O)(=O)O)c2ccccc12 [Congo Red]	stained congophilic neuro-fibrillary tangles	Neither Congo Red nor PEP-11 stained any morphological structure	stained amyloid plaques at the center of the plaques	–	–	–	–	–	–	–	–	–	–	–
PEP-11: WT17-35 with FITC and d-Arginine at C-Terminal (CLVFFAEDVGSNKGAIIGLMC; FITC label, C-terminal D-arginine; /note=“Description of Artificial Sequence Synthetic probe”)	–	–	–	significantly greater	ubiquitous background staining of retinal tissue	less intensely in non-Alzheimer's Disease eyes as compared to Alzheimer's Disease eyes	bound to amyloid aggregates	dose gradient manner	moderate and homogenous	moderate	moderate and homogenous	intense	appears to stain drusen	minimally stained
